Columns and labels:
[1] = target: T1, human CaT1 (Homo sapiens, UniProt Q9H1D0, I526V); experiment: 45Ca2+ uptake by human CaT1 constant expression cells (CHO cells transfected with pMEHis-CaT1); type: cell-based; details: preincubated 4 hours; for amount of 45Ca2+ incorporated into the cells versus control: 3.0 mM, ANOVA, FIG. 28
T1 construct: expressed in transfected cells
T1 sequence (Q9H1D0 45-765 I526V): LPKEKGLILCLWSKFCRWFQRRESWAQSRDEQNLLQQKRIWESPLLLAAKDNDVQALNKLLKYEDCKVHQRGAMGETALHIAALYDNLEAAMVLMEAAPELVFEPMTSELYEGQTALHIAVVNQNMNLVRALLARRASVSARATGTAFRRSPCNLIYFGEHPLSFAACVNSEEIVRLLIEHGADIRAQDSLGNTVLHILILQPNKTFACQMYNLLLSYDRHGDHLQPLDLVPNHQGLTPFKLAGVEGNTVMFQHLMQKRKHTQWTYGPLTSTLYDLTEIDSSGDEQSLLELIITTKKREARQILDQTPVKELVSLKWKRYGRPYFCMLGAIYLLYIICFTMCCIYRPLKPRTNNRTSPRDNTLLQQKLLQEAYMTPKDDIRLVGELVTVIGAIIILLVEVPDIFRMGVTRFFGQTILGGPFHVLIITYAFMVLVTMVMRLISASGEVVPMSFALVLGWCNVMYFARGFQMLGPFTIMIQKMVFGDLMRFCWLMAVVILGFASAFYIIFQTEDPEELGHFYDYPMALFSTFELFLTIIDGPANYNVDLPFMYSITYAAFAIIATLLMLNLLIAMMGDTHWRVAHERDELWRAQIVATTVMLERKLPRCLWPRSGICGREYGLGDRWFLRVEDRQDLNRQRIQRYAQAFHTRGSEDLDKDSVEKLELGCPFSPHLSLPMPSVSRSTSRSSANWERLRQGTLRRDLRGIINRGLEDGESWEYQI

[2] = target: T1, human CaT1; experiment: as above; type: cell-based; details: for amount of 45Ca2+ incorporated, influence of metal ions: versus control, FIG. 14
Experimental: That is, 1×10^5 cells/well of human CaT1 constant expression cells were cultured on a 24-well plate using a medium obtained by adding 10% FCS (fetal calf serum) was added to the above-mentioned DMEM/F12 medium at 37° C. for 5 days in a CO2 environment. After the medium was removed and the cells were washed with PBS buffer and HBSS buffer, to each well added was HBSS buffer containing 5.28 μM of ^45 Ca^2+, which was removed after a predetermined time (usually for 10 minutes excepting the case in which cultivation time is varied (time course is to be obtained)), the cells were solubilized with 1% triton (triton X-100), and then the cells were recovered. The amount of ^45Ca^2+ incorporated into the cells was measured using a liquid scintillation counter. As a control, CHO cells transfected with no human CaT1 gene were also subjected to the same operations to measure the amount of ^45Ca^2+ incorporated in the cells.
On the other hand, the effects of the metallic ion were examined by the same culture conditions and procedures as those in (4) except that 100 μM each of chloride salts La^3+, Gd^3+, Cd^2+, Co^2+, Fe^2+, Mn^2+, and Mg^2+ (10 mM for Mg2+ only) and 100 μM of choline chloride (Cho-Cl) were added to a HBSS buffer containing 5.28 μM of ^45Ca^2+.
In other words, in regards to a cultured human CaT1 constant expression cells evaluated by the same culture conditions and procedures as those in (4), a medium was displaced by a DMEM (—Ca) medium (Dulbecco's Modified Eagle Medium (cont.) Base Catalog No. 21068, manufactured by GIBCO™ Invitrogen Corporation: KCl 400.00 mg/l, NaCl 6400.00 mg/l, NaHCO3 3700.00 mg/l, NaH2PO4.H2O 125.00 mg/l, D-glucose 4500.00 mg/l, L-isoleucine 105.00 mg/l, L-leucine 105.00 mg/l, L-lysine.HCl 146.00 mg/l, L-tyrosin/2Na.2H2O 104.00mg/l) containing, as the food factor, 7% lactose (special grade reagents) 1% casein enzymatic degradation products, 1% guar gum hydrolysate, and soybean enzymatic degradation products (manufactured by Fuji oil Co., Ltd.), respectively, and the amount of ^45Ca^2+ incorporated into the cells was measured after preincubation for additional 4 hours.
The enzyme-treated sample obtained in (1) was dissolved in DMEM (—Ca) (the same as that used in Example 1(6)) so as to make a concentration of 1.0 (w/v)%. This was added to human CaT1 constant expression cells cultivated by the same culture conditions and the same procedures as those in Example 1(4) and CHO cells transfected with no human CaT1 gene, and these cells were preincubated for 4 hours. A medium contained 2.5% dialyzed (Spectra/POR MWCO:100) FCS and 2% L-glutamine solution.
Immediately after completion of the pretreatement, the amount of ^45Ca^2+ incorporated into the cells was measured by the same technique as used in Example 1(4). On the other hand, the same procedure was followed without addition of the enzyme-treated samples as a control.

[3] = target: human calcium transporter 1 (human CaT1) (human) (UniProt Q9H1D0); experiment: cell-based or functional assay
[4] = 100 μM chloride salt in HBSS buffer with 5.28 μM 45Ca2+

For C[C@H](N)C(=O)O [Ala], the “amount of 45Ca2+ incorporated into the cells versus control” value [1] was “no significant increase”.
With [Cl][Cd][Cl] [Cd^2+] the “amount of 45Ca2+ incorporated, influence of metal ions” value (“amount … of metal ions” for short) [2, 4] was “inhibit”.
With [Co+2] [Co^2+] the “amount … of metal ions” value [2, 4] was “inhibit”.
[Fe+2] [Fe^2+] was tested, and the “amount … of metal ions” value [2, 4] was “no significant difference”.
[Gd+3] [Gd^3+] was tested, and the “amount … of metal ions” value [2, 4] was “inhibit”.
In the case of CC[C@H](C)[C@H](N)C(=O)O [Ile], the “amount of 45Ca2+ incorporated into the cells versus control” value [1] is reported as “no significant increase”.
[La+3] [La^3+] was tested, and the “amount … of metal ions” value [2, 4] was “inhibit”.
For [Mg+2] [Mg^2+], the “amount … of metal ions” value ([2]; 10 mM (Mg2+ only) in HBSS buffer with 5.28 μM 45Ca2+) was “no significant difference”.
[Mn+2] [Mn^2+] was tested, and the “amount … of metal ions” value [2, 4] was “no significant difference”.
With O=C(O)[C@@H]1CCCN1 [Pro] the “amount of 45Ca2+ incorporated into the cells versus control” value [1] was “no significant increase”.
For OC[C@H]1O[C@@H](O[C@H]2[C@H](O)[C@@H](O)C(O)O[C@@H]2CO)[C@H](O)[C@@H](O)[C@H]1O (some centres unmarked) [lactose], the “amount of 45Ca2+ incorporated into the cells, influence of food factor” value ([2]; 7% in DMEM (-Ca) medium, preincubation 4 hours, FIG. 15) was “increased”.
In the case of “Ile-Pro-Ala (IPA) [synthetic peptide IPA]”, the “amounts of 45Ca2+ incorporated into the cells, influence of concentration” value ([1]; 0, 0.25, 0.5, 1.0 mg/ml, FIG. 27) is reported as “significantly increased depending on the concentration”.
With Ile-Pro-Ala [peak 1] the “amount of 45Ca2+ incorporated into the cells, HPLC peaks” value ([1]; 0.5 mg/ml, ANOVA p<0.05 versus other peaks and control, FIG. 25) was “increased significantly”.
In the case of Ile-Pro-Ile [IPI], the “amount of 45Ca2+ incorporated into the cells versus control” value [1] is reported as “no significant increase”.
In the case of “enzymatic degradation product of cheese whey (CWP-D)”, the Km of Ca2+ uptake with CWP-D pretreatment (+CWP-D) [3] is reported as 19 µM, the Vmax of Ca2+ uptake with CWP-D pretreatment (+CWP-D) (pmol/mg/10 min) [3] is reported as 1.06 and the amount of 45Ca2+ incorporated into human CaT1 constant expression cells (fold of control, 1.0 (w/v)% CWP-D, 4 h pretreatment) [3] is reported as 8 times.
